Measured values taken from US8716437B2 (priority 2007, dated 2014).
pIC50: −log10 of the molar value.

Assays:
[1] = test system: antiserum to sarafotoxin s6b (anti-S6b); assay: Phage panning on immobilized antiserum to sarafotoxin s6b; assay type: binding; settings: mixture of five ligands, one round of panning
Source text: A mixture of five ligands: (1) kaliotoxin-1; (2) sarafotoxin s6b; (3) Dendroaspis natriuretic peptide (DNP); (4) fasciculin-2; and (5) camel antibody (CVHH); were mixed and panned on purified receptors (KcsA-Kv1.3). The control was immobilized antiserum to sarafotoxin s6b (anti-S6b). Input and output ligands were verified by genotyping. In this system, shown in Table 6, a 3.6-fold enrichment is seen after one-round of panning.

[2] = test system: KcsA-1.3; assay: Phage ELISA on immobilized KcsA-1.3; assay type: binding; settings: in words
Procedure: Panning was performed, in triplicate, on surfaces without a coating (none), and on immobilized KcsA-Kv1.3 receptors (KcsA-Kv1.3), wild-type KcsA receptors (KcsA-WT), and antiserum to sarafotoxin S6b (anti-S6b). The input ligands per well are 10^9, 10^8, 10^7. The ligands included: sarafotoxin S6b (upper panel FIG. 4), kaliotoxin-1 (KTX, middle row FIG. 4), no ligand helper phages (bottom row FIG. 4).
For each binding determination, 3 wells in a NUNC-Immuno MaxiSorp 96-Well plates were coated overnight at 4° C. with 1 ug of KcsA-1.3 or KcsA in 50 ul of 100 mM NaHCO3, 1 mM DDM, pH 9, then washed once with Tris-HC150 mM, NaCl-150 mM pH7.5 containing 0.1% Tween 20, 1 mM DDM (TBST). Wells were then blocked at room temperature with 200 ul of Tris 50 mM NaCl 150 mM pH 7.5, 1 mM DDM, (TBS) containing 0.5% BSA, then washed once with TBST. For each well, 108-1010 phages were added in 50 ul of TBS containing 0.5% BSA and incubated on a rotary shaker at room temperature for 2 hrs. Following five washes with TBST, 50 ul of anti-phage antibody-peroxidase conjugated TBST with 0.5% BSA was added and incubated on a rotary shaker for 2 hours at room temperature, then washed 5 times with TBST and twice with TBS. Fifty (50) ul of 1 step turbo-TMB-ELISA was added and the reaction is stopped by 50 μl of 2M H2SO4 and the absorbancy was read at 450 nm.

[3] = target: T1, Kv1.2 (Rattus norvegicus, UniProt P63142); assay: Two electrode voltage clamp, Xenopus oocytes, Kv1.2; assay type: cell-based
T1 construct: expressed in transfected cells; host or cells: Xenopus laevis oocytes (cRNA injection)
Procedure: (§1) To examine the effect of mokatoxin-1 on activity of potassium ion channels, cDNA encoding Rattus Kv1.1 (NCBI accession number NM_173095), Rattus Kv1.2 (NM_012970), Homo Kv1.3 (NM_002232), or Mus BK (NM_010610) were subcloned into oocyte expression vectors based on PCR3.1 and pGEM. cRNA synthesis was performed with T7 polymerase and the mMessageMachine Kit (Ambion, Austin, Tex.) according to manufacturers instructions. cRNA concentrations were determined spectroscopically. For two electrode voltage clamp recordings oocytes were extracted from Xenopus laevis and defoliculated with Collagenase Type 2 (Worthington, Lakewood, N.J.). Oocytes were maintained in ND91 solution containing 2 mM KCl, 91 mM NaCl, 1 mM MgCl2, 1.8 mM CaCl2, and 5 mM HEPES, pH 7.5, supplemented with 1% Penicillin/Streptomycin (Cellgro, Hemdon, Va.) and 0.1% Gentamycin sulfate (Gibco, Grand Island, N.Y.)) at 16° C. Stage V and VI oocytes were injected with 8 pg to 4 ng cRNA, and currents recorded 1 to 4 days later.
(§2) For dose-response measurements of toxin block of Kv1.1, Kv1,2, or Kv1.3 peak currents were recorded during a 500 ms step to 0 mV from a holding voltage of −100 mV, followed by a 200 ms step to −135 mV every 30 s. To determine the kinetics of toxin block oocytes were held at −100 mV and stepped to the test voltage of 0 mV for 100 ms followed by a 200 ms duration step to −135 mV every 2 s. BK currents were recorded during a 50 ms step to +60 mV from a holding voltage of −80 mV, followed by a 40 ms step to −100 mV every 3 s. The perfusion solution contained 2 mM KCl, 96 mM NaCl, 1 mM MgCl2, 1.8 mM CaCl2, 5 mM HEPES, pH 7.5 and 0.1% fatty acid ultra-free BSA fraction V (Roche Diagnostics Corporation, Indianapolis, Ind.). Data acquisition and processing was performed with an oocyte clamp OC-725B (Warner Instruments Corporation, Hamden, Conn.), pCLAMP (Axon, Sunnyvale, Calif.), IGOR Pro (WaveMetrics, Lake Oswego, Oreg.), and Origin6.1 (OriginLab Corporation, Northampton, Mass.) softwares. The equilibrium dissociation rates (KD) for block of Kv1.1, Kv1.2, and Kv1.3 by mokatoxin-1 were determined by fitting the dose-response data and kon and koff were calculated as described by Goldstein and Miller, 1993 (Biophys J. 1993 65 (4):1613-1619).

[4] = test system: guinea pig ileum; assay: Spontaneous motility (twitches) of guinea pig ileum strips; settings: reference toxins 10 nM; mokatoxin-1 1-100 nM
[5] = test system: guinea pig ileum; settings: J Pharmacol Exp Ther. 1999; cited from earlier work
[6] = target: Kv1.3 (Homo sapiens, UniProt P22001); assay: Two electrode voltage clamp, Xenopus oocytes, Kv1.3; assay type: cell-based; design: expressed in transfected cells; host or cells: Xenopus laevis oocytes (cRNA injection)
Source text: Thereafter, MK-1 was synthesized. […] The blocking of […] by MK-1 is represented by filled circles; the blocking of Kv1.2 by MK-1 is represented by filled diamonds; and the blocking of Kv1.1 by MK-1 is represented by filled triangles.
as §1, §2

Chain of Kv1.3 (P22001 whole entry): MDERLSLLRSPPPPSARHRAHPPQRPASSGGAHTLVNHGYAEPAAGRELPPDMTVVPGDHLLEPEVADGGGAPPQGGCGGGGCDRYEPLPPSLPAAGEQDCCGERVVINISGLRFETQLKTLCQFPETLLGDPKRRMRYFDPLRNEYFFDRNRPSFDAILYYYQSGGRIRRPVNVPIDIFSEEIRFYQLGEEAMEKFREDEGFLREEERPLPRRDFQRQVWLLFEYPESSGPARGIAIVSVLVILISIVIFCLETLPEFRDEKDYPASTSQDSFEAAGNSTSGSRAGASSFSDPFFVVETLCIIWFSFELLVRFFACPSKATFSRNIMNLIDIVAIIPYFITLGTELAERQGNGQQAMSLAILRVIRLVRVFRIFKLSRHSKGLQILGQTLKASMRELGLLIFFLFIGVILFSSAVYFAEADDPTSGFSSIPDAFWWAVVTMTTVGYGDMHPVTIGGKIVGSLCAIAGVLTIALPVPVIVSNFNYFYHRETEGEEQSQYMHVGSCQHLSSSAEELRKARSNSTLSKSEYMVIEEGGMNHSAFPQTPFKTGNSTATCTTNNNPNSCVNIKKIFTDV
T1 sequence (P63142 whole entry): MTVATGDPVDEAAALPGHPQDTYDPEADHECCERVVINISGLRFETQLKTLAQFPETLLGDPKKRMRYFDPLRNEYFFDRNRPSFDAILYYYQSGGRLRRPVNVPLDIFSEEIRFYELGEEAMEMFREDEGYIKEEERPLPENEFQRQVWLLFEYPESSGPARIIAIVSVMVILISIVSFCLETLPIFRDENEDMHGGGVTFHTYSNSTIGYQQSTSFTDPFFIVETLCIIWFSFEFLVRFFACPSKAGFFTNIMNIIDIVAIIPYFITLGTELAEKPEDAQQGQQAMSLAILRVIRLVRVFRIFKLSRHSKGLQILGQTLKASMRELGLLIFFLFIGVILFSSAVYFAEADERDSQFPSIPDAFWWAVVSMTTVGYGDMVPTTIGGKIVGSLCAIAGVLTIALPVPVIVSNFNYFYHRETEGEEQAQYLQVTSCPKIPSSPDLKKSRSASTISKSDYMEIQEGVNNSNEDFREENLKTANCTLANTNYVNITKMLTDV

CC[C@H](C)[C@H](NC(=O)[C@H](CCC(=O)O)NC(=O)[C@@H](NC(=O)CN)C(C)C)C(=O)N[C@@H](CC(N)=O)C(=O)N[C@H](C(=O)N[C@@H](CCCCN)C(=O)N[C@H]1CSSC[C@@H]2NC(=O)[C@H](CCCCN)NC(=O)CNC(=O)[C@H](Cc3ccccc3)NC(=O)[C@H](CCCNC(=N)N)NC(=O)[C@H](CCSC)NC(=O)CNC(=O)[C@H](C)NC(=O)[C@H](CC(=O)O)NC(=O)[C@H](CCCCN)NC(=O)[C@@H]3CSSC[C@@H](C(=O)N[C@H](C(=O)N4CCC[C@H]4C(=O)N[C@@H](CCCCN)C(=O)O)[C@@H](C)O)NC(=O)[C@H](Cc4c[nH]cn4)NC(=O)[C@H](CSSC[C@H](NC(=O)[C@H](CCC(N)=O)NC(=O)[C@@H]4CCCN4C(=O)[C@H](CO)NC(=O)CNC(=O)[C@H](CO)NC1=O)C(=O)N[C@@H](CC(C)C)C(=O)N[C@@H](CCCCN)C(=O)N1CCC[C@H]1C(=O)N3)NC(=O)[C@H](CCCCN)NC(=O)[C@H](CCCNC(=N)N)NC(=O)[C@H](CC(N)=O)NC(=O)[C@H](CCSC)NC2=O)C(C)C [KTX, kaliotoxin-1]
Output (% Ligands) Anti-S6b (n = 20) [1]: 0%
binding of phage to KcsA-1.3 (KcsA-Kv1.3) [2]: specific binding
pIC50 [3]: 8.85
Koff [s]^−1 ([3]; rKv1.2): 0.21 ± 0.01 [s]^−1
Kon [M · s]^−1 ([3]; rKv1.2): 13 · 10^6 ± 3 · 10^6 [M · s]^−1
induction of twitches in ileum strips [4]: induced twitches
ileum contractions [5]: contractions
pIC50 [6]: 9.30
Koff [s]^−1 ([6]; hKv1.3): 0.0070 ± 0.0009 [s]^−1
Kon [M · s]^−1 ([6]; hKv1.3): 8 · 10^8 ± 1 · 10^8 [M · s]^−1
